{
  "source": "paper PMC4274051",
  "about": "(Nature, 2013)",
  "target": "K-Ras(G12C) (Homo sapiens, UniProt P01116, G12C)",
  "sequence (P01116 1-169 isoform P01116-2 G12C)": "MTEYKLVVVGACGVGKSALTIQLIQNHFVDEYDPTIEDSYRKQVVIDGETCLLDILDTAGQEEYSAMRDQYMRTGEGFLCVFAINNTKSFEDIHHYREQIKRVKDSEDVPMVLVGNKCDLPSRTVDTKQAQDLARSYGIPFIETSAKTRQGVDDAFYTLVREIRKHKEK",
  "test": "disulphide tethering, intact protein mass spectrometry",
  "assay_type": "binding",
  "data": [
    {"smiles": "CN(C)CCSSCCNC(=O)C1CCN(C(=O)CSc2ccc(Cl)cc2)CC1", "note": "[6H05]", "values": [
      {"measurement": "% modification", "value": "94 ± 1", "unit": "% modification"}
    ]}
  ]
}
